The record followed here is patent publication US20220218801A1, “COMBINATION GMCI AND ATRI CANCER TREATMENT” (Candel Therapeutics, Inc., priority 2019, published 2022).

The test system of assay [1] is glioma cell line (GL261). Briefly: double-stranded DNA breaks by H2AX Ser139 staining (confocal microscopy). Format: cell-based. The conditions noted are these: 6 hours after addition of ATRi (IC50 concentration) and/or GCV 5 μg/ml, compared with untreated cells. The method, then: In another experiment, the frequency of double-stranded DNA breaks in glioma cells treated with GMCI, ATRi, or the combination. The formation of double-stranded DNA breaks was examined by staining the cells for H2AX-Ser139 as previously performed (Speranza et al. 2017).
At the start of the study (Day 0), glioma cell line (GL261; NCI-Frederick Cancer Research Tumor Repository, Frederick, Md.) is plated at a density of 12,500 cells per well of a 24 well plate containing glass coverslips. For the samples to which GMCI is administered, AdV-tk vector is added at a concentration of approximately 1.25×10^6 vp/ml (100 MOI). Starting on Day 1, to the samples being treated with GMCI, ganciclovir is added to a concentration of 5 μg/ml. In samples exposed to ATRi, starting at Day 1 AZD6738 was added at a concentration to the IC50 concentration of the drug. either in combination with GMCI or alone, as indicated. At a timepoint 6 hours after addition of the ATRi and/or GCV, the cells were fixed in 4% paraformaldehyde in phosphate buffered saline. After blocking with 5% donkey serum/0.5% Tween 20, 0.02% TX100/PBS for 1 hour at room temperature (RT), cells were washed 3 times with washing buffer (0.5% Tween 20, 0.02% TX100/PBS) and stained with H2AX Ser139 antibody (1:100). The next day the samples were washed and incubated for 2 hours with a fluorescently-tagged secondary antibody plus Hoechst 33342. […]

Assay [2] deals with glioma cell line (GL261). Briefly: glioma cell viability assay (Presto Blue, fluorescence). Format: cell-based. The method, then: The combination of GMCI and ATRi (AZD6738) is examined for anti-cancer activity. A schematic of an experimental design to test the effect of combining of GMCI and ATR inhibitor combination on glioma cells is illustrated in FIG. 1. At the start of the study (Day 0), a glioma cell line (GL261; NCI-Frederick Cancer Research Tumor Repository, Frederick, Md.) is plated at a density of 5000 cells per well. For the samples on which GMCI is administered, on the following day (Day 1) AdV-tk vector is added at a concentration of approximately […] (100 MOI). Starting on Day 2, to the samples being treated with GMCI, ganciclovir is added to a concentration of 5 μg/ml. […] At Day 4, cell viability is assayed by the addition of a vial dye such as Presto Blue assay (Life Technologies) and quantified by fluorescence spectrometry.
Synergism was analyzed by the Combination Index (CI) calculation with the formula of Chou-Talalay (Chou 2010; Ting-Chao Chou 1984). CI values above 1.00 indicate antagonistic effect of combination agents, a CI of 1.00 indicates an additive effect, and CI values below 1.00 indicate synergistic effect.

As to `C[C@@H]1COCCN1c1cc(C2([S@](C)(=N)=O)CC2)nc(-c2cc[nH]c3nccc2-3)n1` [AZD6738], the “double-stranded DNA breaks / H2AX(Ser139) staining” value is “Double-stranded DNA breaks occur” in assay [1] and “large increase in H2AX staining” in assay [1] (listed as ATRi). Moreover, in assay [2] (GL261, single agents, AZD6738 at IC50 (1 μM) or ½ IC50 (0.5 μM) from Day 2, GMCI = AdV-tk 100 MOI + ganciclovir 5 μg/ml, read at Day 4), the “cell viability (fluorescence normalized to no treatment)” value is listed as “cytotoxic activity”. The IC50 in assay [2] (Mus musculus, GL261 glioma cells, read-out: IC50 concentration) was 1 µM.
